Test systems include SR; EKVX; 786-0; HCT-116; MDA-MB-231; SNB-75; HOP-92; COLO 205; SK-OV-3; SF-539; LOX IMVI; OVCAR-3; MDA-MB-435; M14; UACC-62; UACC-257; SNB-19; NCI/ADR-RES; TK-10; OVCAR-5.
Holding throughout (assay): NCI tumour cell line growth inhibition, 48 h

Where a name gives a salt, the structure may show the parent alone.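 Each compound was tested at five concentrations against cells in 96-well plates for 48 hours. GI50 = concentration required for 50% inhibition of growth.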 Calls of active or inactive are those of the source. Cut-off read from the data, not from the text of the source: active = GI50 up to about 1.1 µM and inactive = higher. Some results are limits rather than exact numbers.

As for `COc1ccc(Cc2ccc3nc(O)cc(C)c3c2)cc1S(=O)(=O)O`, the GI50 in the assay with SR, in the assay with EKVX, with 786-0, in the assay on HCT-116, in the assay on MDA-MB-231 and in the assay with SNB-75 was > 100 µM (inactive) throughout. For the same compound, the GI50 in the assay with HOP-92, in the assay on COLO 205, in the assay with SK-OV-3, with SF-539, in the assay with LOX IMVI and in the assay with OVCAR-3 was > 100 µM (inactive) throughout. The GI50 with MDA-MB-435, in the assay on M14, with UACC-62, in the assay on UACC-257, with SNB-19 and in the assay with NCI/ADR-RES was > 100 µM (inactive) in each case. The GI50 in the assay on TK-10 and in the assay with OVCAR-5 was > 100 µM (inactive) in each case.

In the case of `COc1cc(Nc2nc3c(N)cc(C(F)(F)F)cc3nc2-c2ccccc2)cc(OC)c1OC`, the GI50 in the assay with SR was > 87.5 µM (inactive); in the assay with EKVX it was > 100 µM (inactive); in the assay on 786-0, 24.3 µM (inactive); with HCT-116 it was > 74.3 µM (inactive); in the assay with MDA-MB-231, > 42.5 µM (inactive); in the assay on SNB-75 it was 17 µM (inactive). Further, the GI50 in the assay with HOP-92 was 1.39 µM (inactive); in the assay on COLO 205, 99.3 µM (inactive); with SK-OV-3, 42.5 µM (inactive); in the assay on SF-539, 28.1 µM (inactive); with LOX IMVI, 72.1 µM (inactive); with OVCAR-3, 57.1 µM (inactive). The GI50 was > 69.2 µM (inactive) in the assay on MDA-MB-435; 66.2 µM (inactive) in the assay on M14; 43.1 µM (inactive) with UACC-62; 63 µM (inactive) in the assay with UACC-257; 25.8 µM (inactive) in the assay with SNB-19; > 53.2 µM (inactive) in the assay with NCI/ADR-RES. In addition, the GI50 with TK-10 was 29.2 µM (inactive); with OVCAR-5, > 100 µM (inactive).

As for `c1ccc(-c2ccc(/N=N/N3CCCC3)cc2)cc1`, the GI50 was 7.11 µM (inactive) in the assay with SR; > 100 µM (inactive) in the assay on EKVX; > 100 µM (inactive) in the assay on 786-0; > 100 µM (inactive) with HCT-116; > 100 µM (inactive) in the assay on MDA-MB-231; > 100 µM (inactive) with SNB-75. Besides, the GI50 in the assay on HOP-92, in the assay on COLO 205, with SK-OV-3, in the assay on SF-539, with LOX IMVI and with OVCAR-3 was > 100 µM (inactive) throughout. Besides, the GI50 with MDA-MB-435, in the assay on M14, in the assay with UACC-62, with UACC-257, in the assay on SNB-19 and in the assay with NCI/ADR-RES was > 100 µM (inactive) each time. The GI50 with TK-10 and in the assay with OVCAR-5 was > 100 µM (inactive) throughout.

Turning to `COc1ccc(CC2C(=O)NC(C)C(=O)N(C)C3C(=O)N(C)C(Cc4ccc(O)c(c4)Oc4ccc(cc4)C3O)C(=O)NC(C)C(=O)NC(C)C(=O)N2C)cc1` (stereo not given), the GI50 with SR was < 0.01 µM (active); with EKVX, 0.0261 µM (active); with 786-0, 0.015 µM (active); with HCT-116, 0.00181 µM (active); in the assay on MDA-MB-231, < 0.01 µM (active); with SNB-75, 0.0137 µM (active). Also, the GI50 was 0.0137 µM (active) in the assay on HOP-92; 0.0206 µM (active) with COLO 205; 0.0236 µM (active) in the assay on SK-OV-3; 0.0136 µM (active) in the assay with SF-539; 0.00225 µM (active) in the assay on LOX IMVI; 0.0113 µM (active) with OVCAR-3. The GI50 in the assay with MDA-MB-435 is < 0.01 µM (active); with M14, 0.0275 µM (active); in the assay on UACC-62, 0.0138 µM (active); in the assay on UACC-257, 0.0071 µM (active); with SNB-19 it was 0.00392 µM (active); in the assay with NCI/ADR-RES, 0.212 µM (active). For the same compound, the GI50 was 0.336 µM (active) in the assay with TK-10 and 0.0303 µM (active) in the assay on OVCAR-5.

On to `CCCCCCCCCCCCCCCCCCNc1ccn(C2OC(COP(=O)(O)OCC3OC(n4cc(C)c(=O)[nH]c4=O)CC3F)C(O)C2O)c(=O)n1` (stereo not given), for which the GI50 in the assay on SR was 1.44 µM (inactive); in the assay with EKVX, 10.3 µM (inactive); in the assay on 786-0, 4.06 µM (inactive); with HCT-116 it was 10.2 µM (inactive); in the assay on MDA-MB-231 it was 10.7 µM (inactive); in the assay on SNB-75, 19.8 µM (inactive). In addition, the GI50 in the assay with HOP-92 is 18.4 µM (inactive); with COLO 205, 3.34 µM (inactive); in the assay with SK-OV-3 it was 8.63 µM (inactive); in the assay with SF-539, 9.46 µM (inactive); with LOX IMVI it was 7.59 µM (inactive); in the assay on OVCAR-3, 7.24 µM (inactive). The GI50 in the assay with MDA-MB-435 was 7.91 µM (inactive); in the assay on M14, 8.17 µM (inactive); in the assay with UACC-62, 6.24 µM (inactive); in the assay with UACC-257, 10.4 µM (inactive); with SNB-19 it was 6.5 µM (inactive); with NCI/ADR-RES it was 30.9 µM (inactive). In addition, the GI50 with TK-10 was 3.08 µM (inactive); with OVCAR-5, 2.56 µM (inactive).

With `O=[N+]([O-])c1ccc2sc(/C=N/c3ccccn3)cc2c1`, the GI50 in the assay with SR was 26.4 µM (inactive); with EKVX, 69 µM (inactive); in the assay on 786-0 it was > 100 µM (inactive); in the assay with HCT-116, 38.4 µM (inactive); in the assay with MDA-MB-231 it was 84.1 µM (inactive); in the assay on SNB-75, > 100 µM (inactive). Also, the GI50 is 69.8 µM (inactive) in the assay with HOP-92; > 100 µM (inactive) with COLO 205; > 100 µM (inactive) with SK-OV-3; > 100 µM (inactive) with SF-539; 31.9 µM (inactive) in the assay on LOX IMVI; 41.8 µM (inactive) in the assay with OVCAR-3. The GI50 in the assay with MDA-MB-435 is 71.6 µM (inactive); in the assay on M14 it was > 100 µM (inactive); in the assay on UACC-62, 99.1 µM (inactive); in the assay on UACC-257, 99.8 µM (inactive); with SNB-19 it was > 100 µM (inactive); in the assay on NCI/ADR-RES, 97.7 µM (inactive). The GI50 in the assay with TK-10 and in the assay on OVCAR-5 was > 100 µM (inactive) in each case.

On to `Clc1ccc(C2=Cc3nc2c(-c2ccccc2)c2ccc([nH]2)c(-c2ccccc2)c2nc(c(-c4ccccc4)c4ccc([nH]4)c3-c3ccccc3)C=C2)cc1`, for which the GI50 is > 62.5 µM (inactive) with SR; > 62.5 µM (inactive) with EKVX; > 62.5 µM (inactive) with 786-0; > 62.5 µM (inactive) in the assay with HCT-116; > 62.5 µM (inactive) in the assay on MDA-MB-231; 32.9 µM (inactive) with SNB-75. Moreover, the GI50 in the assay on HOP-92 is 61 µM (inactive); in the assay with COLO 205, > 62.5 µM (inactive); in the assay with SK-OV-3 it was > 62.5 µM (inactive); with SF-539, > 62.5 µM (inactive); with LOX IMVI, > 62.5 µM (inactive); in the assay on OVCAR-3, > 62.5 µM (inactive). In addition, the GI50 in the assay with MDA-MB-435 is > 62.5 µM (inactive); with M14, > 62.5 µM (inactive); with UACC-62, > 62.5 µM (inactive); in the assay with UACC-257, > 62.5 µM (inactive); in the assay on SNB-19 it was 46 µM (inactive); with NCI/ADR-RES it was > 62.5 µM (inactive). The GI50 in the assay with TK-10 and in the assay with OVCAR-5 was > 62.5 µM (inactive) in each case.

For `N=C(N)NS(=O)(=O)c1ccc(NC(=O)c2ccc3nc4ccccc4c(Nc4ccc(S(=O)(=O)N=C(N)N)cc4)c3c2)cc1`, the GI50 with SR, with EKVX, with 786-0, in the assay on HCT-116, with MDA-MB-231 and in the assay on SNB-75 was > 100 µM (inactive) throughout. For the same compound, the GI50 in the assay on HOP-92 was > 100 µM (inactive); in the assay on COLO 205, > 100 µM (inactive); in the assay on SK-OV-3, > 100 µM (inactive); in the assay with SF-539 it was > 100 µM (inactive); with LOX IMVI, 61.8 µM (inactive); in the assay on OVCAR-3, > 100 µM (inactive). Further, the GI50 in the assay with MDA-MB-435 is > 100 µM (inactive); in the assay with M14 it was > 100 µM (inactive); with UACC-62 it was 30.1 µM (inactive); in the assay on UACC-257, > 100 µM (inactive); in the assay with SNB-19 it was > 100 µM (inactive); in the assay on NCI/ADR-RES, > 100 µM (inactive). The GI50 in the assay on TK-10 and in the assay with OVCAR-5 was > 100 µM (inactive) in each case.

For the compound `NCCCCN` [PUTRESCINE HYDROCHLORIDE], the GI50 in the assay with SR, in the assay on EKVX, in the assay on 786-0, in the assay on HCT-116, with MDA-MB-231 and in the assay on SNB-75 was > 100 µM (inactive) each time. For the same compound, the GI50 in the assay on HOP-92, with COLO 205, in the assay with SK-OV-3, in the assay on SF-539, in the assay with LOX IMVI and with OVCAR-3 was > 100 µM (inactive) in each case. Moreover, the GI50 in the assay on MDA-MB-435 was 8.36 µM (inactive); in the assay on M14, > 100 µM (inactive); with UACC-62, > 100 µM (inactive); in the assay on UACC-257 it was > 100 µM (inactive); in the assay on SNB-19, > 100 µM (inactive); with NCI/ADR-RES, > 100 µM (inactive). Also, the GI50 in the assay with TK-10 and in the assay on OVCAR-5 was > 100 µM (inactive) in each case.

Regarding `O=C(Cn1c(=O)oc2ccc(C(=O)c3ccccc3Cl)cc21)c1ccc([N+](=O)[O-])cc1`, the GI50 with SR was 8.39 µM (inactive); in the assay with EKVX, 24.2 µM (inactive); in the assay with 786-0 it was 19.6 µM (inactive); in the assay on HCT-116, 17.8 µM (inactive); in the assay on MDA-MB-231, 20.8 µM (inactive); with SNB-75 it was 0.824 µM (active). Also, the GI50 was 27.5 µM (inactive) with HOP-92; 20.6 µM (inactive) with COLO 205; 21.9 µM (inactive) in the assay on SK-OV-3; 28.8 µM (inactive) in the assay on SF-539; 17 µM (inactive) with LOX IMVI; 17 µM (inactive) with OVCAR-3. For the same compound, the GI50 in the assay with MDA-MB-435 was 17.7 µM (inactive); in the assay on M14, 18.4 µM (inactive); in the assay on UACC-62 it was 12 µM (inactive); with UACC-257, 31.1 µM (inactive); in the assay on SNB-19, 40.5 µM (inactive); with NCI/ADR-RES it was 22.6 µM (inactive). Moreover, the GI50 with TK-10 was 51.1 µM (inactive); in the assay on OVCAR-5 it was 47.6 µM (inactive).

(Values after ChEMBL document CHEMBL1201862, “PubChem BioAssay data set” (2004).)
